Laboratory results taken from US10399958B2, “PPAR agonists, compounds, pharmaceutical compositions, and methods of use thereof” (Mitobridge, Inc., priority 2015, dated 2019).
Where two headings read alike, the source gives them in different places.

Experiments:
PPAR delta = PPAR delta (Homo sapiens (Human), UniProt Q03181); assay: PPARδ activity screen: GAL4-PPARδ LBD transactivation luciferase reporter in CV-1 cells; assay type: cell-based
Procedure: CV-1 cells were grown in DMEM+10% charcoal stripped FCS. Cells were seeded into 384-well plates the day before transfection to give a confluency of 50-80% at transfection. A total of […] containing 0.64 micrograms pCMX-PPARDelta LBD, 0.1 micrograms pCMXβGal, 0.08 micrograms pGLMH2004 reporter and 0.02 micrograms pCMX empty vector was transfected per well using FuGene transfection reagent according to the manufacturer's instructions (Roche). Cells were allowed to express protein for 48 h followed by addition of compound.
Human PPARδ was used to PCR amplify the PPARδ LBD. […] Ensuing fusions were verified by sequencing.
All compounds were dissolved in DMSO and diluted 1:1000 upon addition to the cells. Compounds were tested in quadruple in concentrations ranging from 0.001 to 100 μM. Cells were treated with compound for 24 h followed by luciferase assay. Each compound was tested in at least two separate experiments.
Medium including test compound was aspirated and washed with PBS. 50 μl PBS including 1 mM Mg++ and Ca++ were then added to each well. The luciferase assay was performed using the LucLite kit according to the manufacturer's instructions (Packard Instruments). Light emission was quantified by counting on a Perkin Elmer Envision reader. […] Beta-galactosidase assays were performed in the microwell plates using a kit from Promega and read in a Perkin Elmer Envision reader. The beta-galactosidase data were used to normalize (transfection efficiency, cell growth etc.) the luciferase data.
The activity of a compound is calculated as fold induction compared to an untreated sample. For each compound the efficacy (maximal activity) is given as a relative activity compared to GW501516, a PPARδ agonist. […] EC50 values were calculated via non-linear regression usingGraphPad PRISM (GraphPad Software, San Diego, Calif.).

[1] = system: Sprague-Dawley rat acute kidney injury; assay: Ischemia-reperfusion kidney injury in rats, plasma creatinine; assay type: in vivo; conditions: 30 mg/kg orally 4 hours after surgery, blood 24 hours after reperfusion, FIG. 11
Procedure: Sprague-Dawley male rats approximately 280-300 g, with ad libitum access to standard feed and water were used in these experiments. Rats were anesthetized with isoflurane and placed ventrally on a temperature controlled heated surgical platform. A skin incision was made on the dorsal surface, exposing both kidneys through flank incisions. Vascular clips were applied to both renal pedicles and occlusion lasted 45 minutes. After 45 min, the clips were removed, kidneys were monitored for successful reperfusion, and surgical sites were sutured. The sham group was subjected to similar surgical procedures, except that the occluding clamps were not applied. Four independent studies, testing each compound were performed. Compounds were formulated as a fresh daily suspension in 0.25% sodium carboxymethyl-cellulose, 0.25% Tween-80 in purified water. Compounds were dosed orally at 30 mg/kg 4 hours after animals awoke from surgery and sham surgery and IRI control animals were similarly dosed with vehicle.
Twenty-four (24) hours after reperfusion, blood was collected in K2 EDTA tubes by retro-orbital bleeding from all groups under mild isoflurane anesthesia. Plasma was separated by centrifugation at 3000 rpm for 10 minutes at 4° C. Plasma creatinine was analyzed using a fully automated clinical biochemistry analyzer (Siemens Dimension® Xpand® Plus Integrated Chemistry System)
Creatinine was tested for normal distribution in all groups via a D'Agostino-Pearson omnibus normality test and a Shapiro-Wilk normality test. Normally distributed data was subjected to an unpaired, two-tailed t test. Non-normally distributed data was subjected to a Mann-Whitney test (non-parametric). Statistical significance is determined by p<0.05 of IRI-vehicle compared to compound treated groups.

[2] = Pharmacokinetic (PK) screening (i.v.) in male CD1 mice; assay type: in vivo, mouse; conditions: for clearance: male, CD1, mouse, plasma, iv
Procedure: In this example, the intravenous PK profile of several PPARδ agonists disclosed herein in male CD1 mice was determined. Similar methods can be used to analyze other compounds provided herein. All compounds were administered separately to CD1 mice at 1 mg/kg (i.v.), except the comparator compound to 2c was administered at 3 mg/kg (i.v.), as noted below.

[3] = CV-1 cells, 24 h compound treatment, luciferase, read-out: PPAR delta transactivation EC50
[4] = 1 mg/kg, I.V. 1 mg/kg dose, read-out: CL
[5] = 1 mg/kg, I.V. 1 mg/kg dose, read-out: High or Low CL

Chain of PPAR delta (Q03181 128-441 limits assumed): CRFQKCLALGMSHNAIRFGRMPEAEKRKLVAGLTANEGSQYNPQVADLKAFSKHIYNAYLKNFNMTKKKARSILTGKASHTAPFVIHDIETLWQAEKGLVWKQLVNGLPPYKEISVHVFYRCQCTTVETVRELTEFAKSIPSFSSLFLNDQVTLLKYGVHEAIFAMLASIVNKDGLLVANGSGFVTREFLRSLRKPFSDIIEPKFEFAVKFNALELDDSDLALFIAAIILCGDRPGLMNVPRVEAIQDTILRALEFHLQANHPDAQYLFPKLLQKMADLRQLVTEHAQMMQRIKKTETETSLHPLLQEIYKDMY

`Cc1cnc(-c2ccc(C(F)(F)F)cc2)n1Cc1ccccc1OCCCCCC(=O)O` [Comparator Compound 1, reference compound] showed an EC50 (PPAR delta; [3]) of 0.1 nM.
Work on `Cc1cnc(-c2ccc(C(F)(F)F)nc2)n1Cc1ccccc1OCCCCCC(=O)O` [Comparator Compound 2, reference compound] yielded an EC50 (PPAR delta; [3]) of 3.8 nM.
In the case of `Cc1cnc(-c2ccc(OC(F)(F)F)cc2)n1Cc1ccccc1OCCC[C@@H](C)CC(=O)O` [Compound 2a, (R)-3-methyl-6-(2-((5-methyl-2-(4-(trifluoromethoxy)phenyl)-1H-imidazol-1-yl)methyl)phenoxy)hexanoic acid], the EC50 (PPAR delta) is reported as 1 nM, the Plasma creatinine [1] is reported as “reduce plasma creatinine” and the clearance [2, 4] is reported as 33 mL/min/kg. The clearance [2, 5] was < 85 mL/min/kg.
With `Cc1cnc(-c2ccc(Cl)cc2)n1Cc1ccccc1OCCC[C@@H](C)CC(=O)O` [Compound 2b, (R)-6-(2-((2-(4-chlorophenyl)-5-methyl-1H-imidazol-1-yl)methyl)phenoxy)-3-methylhexanoic acid] the EC50 (PPAR delta) was 7.8 nM, the clearance [2, 4] was 22 mL/min/kg and the clearance [2, 5] was < 85 mL/min/kg.
With `Cc1cnc(-c2ccc(-c3ccco3)cc2)n1Cc1ccccc1OCCC[C@@H](C)CC(=O)O` [Compound 2c, (R)-6-(2-((2-(4-(furan-2-yl)phenyl)-5-methyl-1H-imidazol-1-yl)methyl)phenoxy)-3-methylhexanoic acid] the EC50 (PPAR delta; [3]) was 3.7 nM, the clearance [2, 4] was 73 mL/min/kg and the clearance [2, 5] was < 85 mL/min/kg.
With `C/C(=C\COc1ccccc1Cn1c(C)cnc1-c1ccc(OC(F)(F)F)cc1)CCC(=O)O` [Compound 2e, (E)-4-methyl-6-(2-((5-methyl-2-(4-(trifluoromethoxy)phenyl)-1H-imidazol-1-yl)methyl)phenoxy)hex-4-enoic acid] the EC50 (PPAR delta; [3]) was 0.2 nM, the clearance [2, 4] was 70 mL/min/kg and the clearance [2, 5] was < 85 mL/min/kg.
For `Cc1ccc(-c2ncc(C)n2Cc2ccccc2OCCC[C@@H](C)CC(=O)O)cc1` [Compound 2f, (R)-3-methyl-6-(2-((5-methyl-2-(p-tolyl)-1H-imidazol-1-yl)methyl)phenoxy) hexanoic acid], the EC50 (PPAR delta) was 24.3 nM.
Compound `Cc1cnc(-c2ccc(F)cc2)n1Cc1ccccc1OCCC[C@@H](C)CC(=O)O` [Compound 2g, (R)-6-(2-((2-(4-fluorophenyl)-5-methyl-1H-imidazol-1-yl)methyl)phenoxy)-3-methylhexanoic acid] has an EC50 (PPAR delta; [3]) of 39 nM.
In the case of `Cc1cnc(-c2ccc(C(F)(F)F)c(F)c2)n1Cc1ccccc1OCCCCC(C)(C)C(=O)O` [Compound 2h, 6-(2-((2-(3-fluoro-4-(trifluoromethyl)phenyl)-5-methyl-1H-imidazol-1-yl)methyl)phenoxy)-2,2-dimethylhexanoic acid], the EC50 (PPAR delta; [3]) is reported as 3.5 nM, the clearance [2, 4] is reported as 25 mL/min/kg and the clearance [2, 5] is reported as < 85 mL/min/kg.
Work on `Cc1cnc(-c2ccc(Cl)c(F)c2)n1Cc1ccccc1OCCCCC(C)(C)C(=O)O` [Compound 2i, 6-(2-((2-(4-chloro-3-fluorophenyl)-5-methyl-1H-imidazol-1-yl)methyl)-phenoxy)-2,2-dimethylhexanoic acid] yielded an EC50 (PPAR delta; [3]) of 18.8 nM.
With `Cc1cnc(-c2ccc(Cl)c(F)c2)n1Cc1ccccc1OCCC[C@@H](C)CC(=O)O` [Compound 2j, (R)-6-(2-((2-(4-chloro-3-fluorophenyl)-5-methyl-1H-imidazol-1-yl)methyl)phenoxy)-3-methylhexanoic acid] the EC50 (PPAR delta; [3]) was 0.8 nM, the clearance [2, 4] was 38 mL/min/kg and the clearance [2, 5] was < 85 mL/min/kg.
In the case of `Cc1cnc(-c2ccc(C(F)(F)F)cc2)n1Cc1cc(F)ccc1OCCC[C@@H](C)CC(=O)O` [Compound 2k, (R)-6-(4-fluoro-2-((5-methyl-2-(4-(trifluoromethyl)phenyl)-1H-imidazol-1-yl)methyl)phenoxy)-3-methylhexanoic acid], the EC50 (PPAR delta; [3]) is reported as 6.6 nM, the clearance [2, 4] is reported as 17 mL/min/kg and the clearance [2, 5] is reported as < 85 mL/min/kg.
`Cc1cnc(-c2ccc(OC(F)F)cc2)n1Cc1ccccc1OCCC[C@@H](C)CC(=O)O` [Compound 2l, (R)-6-(2-((2-(4-(difluoromethoxy)phenyl)-5-methyl-1H-imidazol-1-yl)methyl)phenoxy)-3-methylhexanoic acid] gave an EC50 (PPAR delta; [3]) of 13.5 nM.
With `Cc1ccc(OCCC[C@@H](C)CC(=O)O)c(Cn2c(C)cnc2-c2ccc(OC(F)(F)F)cc2)c1` [Compound 2m, (R)-3-methyl-6-(4-methyl-2-((5-methyl-2-(4-(trifluoromethoxy)phenyl)-1H-imidazol-1-yl)methyl)phenoxy)hexanoic acid] the EC50 (PPAR delta; [3]) was 0.5 nM, the clearance [2, 4] was 85 mL/min/kg and the clearance [2, 5] was < 85 mL/min/kg.
With `Cc1cnc(-c2ccc(C(F)(F)F)nc2)n1Cc1ccccc1OCCC[C@@H](C)CC(=O)O` [Compound 2n, (R)-3-methyl-6-(2-((5-methyl-2-(6-(trifluoromethyl)pyridin-3-yl)-1H-imidazol-1-yl)methyl)phenoxy)hexanoic acid] the Plasma creatinine [1] was “reduce plasma creatinine”, the clearance [2, 4] was 62 mL/min/kg and the clearance [2, 5] was < 85 mL/min/kg.
Compound `Cc1cnc(-c2ccc(C(F)F)cc2)n1Cc1ccccc1OCCC[C@@H](C)CC(=O)O` [Compound 2o, (R)-6-(2-((2-(4-(difluoromethyl)phenyl)-5-methyl-1H-imidazol-1-yl)methyl)phenoxy)-3-methylhexanoic acid] has an EC50 (PPAR delta; [3]) of 9.9 nM.
Compound `CSc1ccc(-c2ncc(C)n2Cc2ccccc2OCCC[C@@H](C)CC(=O)O)cc1` [Compound 2p, (R)-3-methyl-6-(2-((5-methyl-2-(4-(methylthio)phenyl)-1H-imidazol-1-yl)methyl)phenoxy)hexanoic acid] has an EC50 (PPAR delta; [3]) of 13.1 nM.
In the case of `Cc1cnc(-c2ccc(C(F)(F)F)cc2)n1Cc1ccccc1OCCCCC(C)(C)C(=O)O` [Compound 2q, 2,2-dimethyl-6-(2-((5-methyl-2-(4-(trifluoromethyl)phenyl)-1H-imidazol-1-yl)methyl)phenoxy)hexanoic acid], the EC50 (PPAR delta; [3]) is reported as 14.3 nM, the clearance [2, 4] is reported as 11 mL/min/kg and the clearance [2, 5] is reported as < 85 mL/min/kg.
In the case of `Cc1cnc(-c2ccc(-c3ccco3)cc2)n1Cc1ccccc1OCCCCCC(=O)O` [comparator compound to 2c, reference compound], the clearance ([2]; 3 mg/kg, 3 mg/kg i.v. dose, read-out: CL) is reported as 270 mL/min/kg and the clearance ([2]; 3 mg/kg, 3 mg/kg i.v. dose, read-out: High or Low CL) is reported as > 85 mL/min/kg.
With `Cc1cnc(-c2ccc(C(F)(F)F)cc2)n1Cc1ccccc1OCCCCCC(=O)O` [comparator compound to 2d, reference compound] the “CL / exposure after i.v. dose (result in words)” value ([2]; I.V. 1 mg/kg dose) was “Due to low exposure data could not be measured”.
With `Cc1cnc(-c2ccc(OC(F)(F)F)cc2)n1Cc1ccccc1OCCCCCC(=O)O` [comparator compound to 2e, reference compound] the clearance [2, 4] was 185 mL/min/kg and the clearance [2, 5] was > 85 mL/min/kg.
For `Cc1cnc(-c2ccc(C(F)(F)F)nc2)n1Cc1ccccc1OCCCCCC(=O)O` [comparator compound to 2n, reference compound], the “CL / exposure after i.v. dose (result in words)” value ([2]; I.V. 1 mg/kg dose) was “Due to low exposure data could not be measured”.
